Laboratory results reported in PubChem BioAssay AID228 (DTP/NCI, 2004).
Records with an inconclusive call do not appear.

System: BDF1 mice, Friend leukemia sc, tumor weight T/C
Assay: NCI In Vivo Anticancer Drug Screen. Data for tumor model Friend Virus Leukemia (Solid) (subcutaneous) in B6D2F1 (BDF1) mice
Settings: endpoint: mean tumor weight, schedule: Q01DX011 (ip), vehicle: carboxymethylcellulose (CMC), higher = larger tumour
Experimental: The antitumor activity of compounds was measured in mice bearing transplantable tumors. Survival or tumor size were measured and the results are expressed as the measurement made in the treated group (T) divided by the measurement made in the vehicle treated control group (C). The tumor model used in this assay is Friend Virus Leukemia (Solid) (subcutaneous) in B6D2F1 (BDF1) mice

In the case of `CCOc1ccc2nc(S(N)(=O)=O)sc2c1`, the T/C (dose: 62.0 mg/kg/injection) is reported as 77 % of control and the T/C (dose: 125.0 mg/kg/injection) is reported as 89 % of control.
In the case of `CCCCCCCCCCCCCCCCC(C(=O)O)C(O)(CC(=O)O)C(=O)O` (centres undefined), the T/C (dose: 19.0 mg/kg/injection) is reported as 107 % of control, the T/C (dose: 37.5 mg/kg/injection) is reported as 100 % of control and the T/C (dose: 75.0 mg/kg/injection) is reported as 35 % of control.
For `O=C(COc1cc(Cl)c(Cl)cc1Cl)OCCOc1cc(Cl)c(Cl)cc1Cl`, the T/C (dose: 11.25 mg/kg/injection) was 91 % of control, the T/C (dose: 22.5 mg/kg/injection) was 112 % of control and the T/C (dose: 45.0 mg/kg/injection) was 117 % of control. The T/C (dose: 90.0 mg/kg/injection) was 65 % of control.
